Data taken from patent publication US20260217659A1, “COMPOUNDS, COMPOSITIONS AND USES THEREOF IN THE TREATMENT AND PREVENTION OF DISEASES AND CONDITIONS ASSOCIATE WITH OR AGGRAVATED BY IMPAIRED MITOPHAGY OR OXIDATIVE STRESS” (Yissum Research Development Company of The Hebrew …, priority 2023, published 2026).

Experiments:
Hep-3B cells [1] = experiment: Mitophagy: colocalization of mitochondria and lysosomes in Hep-3B cells; type: cell-based, human; details: 100 μM, 6 h
Method: FIGS. 7A-7B show how ST-480 induces mitophagy. (7A) Colocalization of mitochondria and lysosome. Arrowheads indicate representative colocalization. The inset represents an eight-fold enlargement-scale bar: 50 μm. (7B) Colocalization quantification. N=3, ≥412 cells per treatment. *p<0.05, Error bars represent SEM.
ST-480 induces mitophagy in Hep-3B cells. To explore whether ST-480 induces mitophagy, Hep-3B cells were exposed to 100 μM ST-480 or vehicle control for 6 h. To measure mitophagy, the colocalization of mitochondria and lysosomes were quantified using specific mitochondrial and lysosomal dyes. In addition, nuclei were stained using a DNA dye—For this, the Cytopainter ab139487 kit, was used.

Hep-3B cells [2] = experiment: Hep-3B cell survival; type: cell-based, human; details: single agent, 72 h
Method: (§1) FIGS. 6A-6E show how ST-480 and CQ effectively kill Hep-3B cancer cells. Bar graphs displaying the effects of ST-480 (6A) and CQ (6B) and their combined effect 6C) on Hep-3B cells' survival after 72 h—the experimental setup was similar Asterisks represent a comparison to vehicle control (6A and 6B) or towards (the same CQ concentration under vehicle treatment conditions (5C). *p<0.05, **p<0.01, ***p<0.001, ****p<0.0001. N=3 biological repeats. (5D) Representative images show the state of Hep-3B cells treated as described in (6C). Scale bar: 200 μm. (5E) BEAS-2B cells are not sensitive to ST-480, ns-non-significance. N-3. Error bars represent SEM.
(§2) To strengthen these conclusions, the impact of ST-480 and CQ was tested on another liver cancer cell line, namely Hep-3B′ the Hep-3B cell line originated from a person with primary hepatocellular carcinoma (HCC). […] In addition, the combined effect of ST-480 and CQ on Hep-3B survival was tested. […] In this respect, it should be emphasized that ST-480 was not toxic to non-cancer cells.

Huh-7 cells = experiment: Huh-7 cell survival, MTT assay; type: cell-based, human; details: 72 h
Method: Huh-7 cells (2000 per well, in 96-wells plate) were treated with 100 μM of each compound. Cell viability was measured by MTT assay after 72 h. Asterisks represent a comparison to vehicle control. ****p<0.0001. N=3 biological repeats. Error bars represent SEM.
(§3) FIGS. 5A-5D show how ST-480 and CQ kill Huh-7 cells in a dose-dependent manner. (5A) Surviving curves in 200 mM paraquat (PQ). Worms were treated with ST-480 at the indicated concentrations or with the vehicle as a control for 48 h. Afterward, they were treated with 200 mM PQ, and their survival was measured after 3 and 6 h. N=6 biological repeats, P values are indicated (compared with the vehicle control). Bar graphs displaying the survival of Huh-7 cells in different doses of CQ (4B) and ST-480 (5C) —the experimental setup was similar to that described in FIG. 1. Asterisks represent a comparison to vehicle control. N=3 biological repeats. (5D) Bar graph showing the combined effect of ST-480 and CQ on Huh-7 cells' survival after 72 h. *p<0.05, ***p<0.001, ****p<0.0001. N=3 biological repeats. *Error bars represent SEM.
ST-480, is one of the diamine compounds of the invention that inhibits liver cancer cell viability. […] Therefore, the activity of the polyamine compound of the invention in liver cancer therapy. To explore this, the inventors screened the effect of eight new compounds. In addition, the effect of two compounds in the context of lifespan, health-span, and proteotoxicity, i.e., the diamines VL-004 and VL-850 were examined, and the natural polyamine spermidine (Spd). Huh-7 cells (derived from hepatocellular carcinoma of a person) were exposed to 100 μM of each compound and examined their survival after 72 h using an MTT assay.
Chloroquine (CQ) has been used safely to treat malaria and to suppress autophagic flux. Moreover, as indicated above, it induces DNA damage and apoptosis in cancer cells. The effect of different CQ concentrations on Huh-7 cells' survival after 72 h were tested. In parallel, dose-response experiments testing ST-480 toxicity in these cells were performed.

BEAS-2B cells = experiment: BEAS-2B non-cancer cell survival; type: cell-based; details: 70 µM and 100 μM, 72 h
Method: as §1, §2

C. elegans = experiment: Survival of worms in 200 mM paraquat (oxidative stress resistance); type: in vivo; details: 48 h treatment, then 200 mM paraquat, survival after 3 and 6 h
Method: as §3
Chloroquine (CQ) enhances ST-480 cytotoxicity.

HUH7 cells = experiment: XTT proliferation inhibition, HUH7; type: cell-based; details: Homo sapiens, Huh-7, HUH7, liver cancer (HCC), 72 h
Method: (§4) Cell lines: PANC-1. Organism: Homo sapiens, human/Tissue: Pancreas; Duct/Disease: Epithelioid Carcinoma HUH7. Organism: Homo sapiens, human/Tissue: Liver/Disease: Carcinoma; Hepatocellular NCI-H69. Organism: Homo sapiens, human/Tissue: Lung/Disease: NSCL U87 MG. Organism: Homo sapiens, human/Tissue: Brain/Disease: Glioma
(§5) PANC-1, HUH7, NCI-H69 and U87 MG cells are plated in one 96 well plate each, in their culture medium, at 7500 cells/well. Cells are allowed to attach for 16-24 hours at 37° C., 5% CO2. Thereafter, culture medium is discarded, and fresh culture medium is added to the cells, supplemented with elevating ST-1944 concentrations: 0.4, 2, 10 and 50 μM, 3 wells of each concentration (triplicates). The cells are incubated another 72±2 hours at 37° C., 5% CO2. At the end of incubation period, medium is discarded and 100 μL fresh culture medium is added to the cells along with 50 μL XTT reagent. The OD is measured in a plate reader once Vehicle treated cells are reach the range of 0.5-1.5 OD at 450 nm wavelength.
(§6) PANC-1 and HUH7culture medium: DMEM Medium (4.5 g/L glucose), supplemented with 10% FBS (heat inactivated), 2 mM L-Glutamine, and 1% of Pen/Strep Solution. U87 MG and NCI-H69 culture medium: EMEM Medium, supplemented with 10% FBS (heat inactivated), 2 mM L-Glutamine, and 1% of Pen/Strep Solution. […]

U87 MG cells = experiment: XTT proliferation inhibition, U87 MG; type: cell-based; details: Homo sapiens, U-87 MG, glioma (GBM), 72 h
Method: as §4, §5, §6

PANC-1 cells = experiment: XTT proliferation inhibition, PANC-1; type: cell-based; details: Homo sapiens, Panc-1, pancreatic cancer, 72 h
Method: as §4, §5, §6

NCI-H69 cells = experiment: XTT proliferation inhibition, NCI-H69; type: cell-based; details: Homo sapiens, NCI-H69, lung cancer (NSCLC), 72 h
Method: as §4, §5, §6

IC50 (HUH7 cells)	IC50 (U87 MG cells)	IC50 (PANC-1 cells)	IC50 (NCI-H69 cells)	Compound	mitophagy (colocalization of mitochondria and lysosomes) (Hep-3B cells [1])	Hep-3B cells' survival (Hep-3B cells [2])	Huh-7 cell survival (Huh-7 cells; 100 μM, MTT assay)	Huh-7 cells' survival, dose response (Huh-7 cells; ST-480 at 60, 80, and 100 μM)	cell death of non-cancer BEAS-2B cells (BEAS-2B cells)	resistance to oxidative stress (C. elegans)	Huh-7 cells' survival, dose response (Huh-7 cells; CQ at 7, 8, and 10 μM)
				NCCCCc1ccccc1CCCCN [ST-480]	induces mitophagy in a significant manner	sensitive to both ST-480 and CQ in a dose-dependent manner	significantly decreased Huh-7 cell survival	significantly decreased cells' survival	did not observe a significant cell death	confer resistance to oxidative stress	
2 µM	10 µM	1 µM	10 µM	Cn1ccnc1SCCCCc1ccccc1CCCCSc1nccn1C [ST-1944]							
				CCN(CC)CCCC(C)Nc1ccnc2cc(Cl)ccc12 (stereo not drawn) [CQ, chloroquine, reference compound]		sensitive to both ST-480 and CQ in a dose-dependent manner					significantly decreased cells' survival
